Source: the supplement of paper PMC10307832

Legend:
Test in all cases: relative viability (nuclei count vs DMSO), 5 days (fraction); higher = more cells survive
Tanzisertib + Olaparib = compound: O[C@H]1CC[C@H](Nc2ncc3nc(Nc4c(F)cc(F)cc4F)n([C@H]4CCOC4)c3n2)CC1 [Tanzisertib] + O=C(c1cc(Cc2n[nH]c(=O)c3ccccc23)ccc1F)N1CCN(C(=O)C2CC2)CC1 [Olaparib] (partner 8 µM)
Procedure, shortened: (§1)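 For relative viability, nuclei counts in treated wells were divided by those in vehicle wells. Lung cancer cell lines had been pin-tool dosed in 1536-well plates the day after seeding and cultured for 5 days, then fixed and stained in one step (final 0.05% Triton X-100, 1% formaldehyde, 1 ug/ml Hoechst) and imaged at 4×. Doses were one drug alone or a fixed anchor-drug dose plus five library-drug doses (not always all listed) in √10 steps, and values are duplicate-plate medians.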

[1] = compound: C[C@@H](N)c1ccc(C(=O)Nc2ccnc3[nH]ccc23)cc1 + COc1cccc2cc(-c3nc([C@H]4CC[C@H](C(=O)O)CC4)n4ncnc(N)c34)[nH]c12 [OSI-027] (partner 0.5 µM)
Procedure, shortened: as §1

[2] = compound: C[C@@H](N)c1ccc(C(=O)Nc2ccnc3[nH]ccc23)cc1 + O=C(c1cc(Cc2n[nH]c(=O)c3ccccc23)ccc1F)N1CCN(C(=O)C2CC2)CC1 [Olaparib] (partner 8 µM)
Procedure, shortened: as §1

Tanzisertib + Pictilisib = compound: O[C@H]1CC[C@H](Nc2ncc3nc(Nc4c(F)cc(F)cc4F)n([C@H]4CCOC4)c3n2)CC1 [Tanzisertib] + CS(=O)(=O)N1CCN(Cc2cc3nc(-c4cccc5[nH]ncc45)nc(N4CCOCC4)c3s2)CC1 [Pictilisib] (partner 1 µM)
Procedure, shortened: as §1

| Cell Line | relative viability (Tanzisertib + Olaparib; first compound 0.08 µM) | relative viability (Tanzisertib + Olaparib; first compound 0.253 µM) | relative viability (Tanzisertib + Olaparib; first compound 0.8 µM) | relative viability (Tanzisertib + Olaparib; first compound 2.53 µM) | relative viability (Tanzisertib + Olaparib; first compound 8 µM) | relative viability ([1]; first compound 0.04 µM) | relative viability ([1]; first compound 0.1265 µM) | relative viability ([1]; first compound 0.4 µM) | relative viability ([1]; first compound 4 µM) | relative viability ([2]; first compound 0.04 µM) | relative viability ([2]; first compound 0.1265 µM) | relative viability ([2]; first compound 0.4 µM) | relative viability ([2]; first compound 1.265 µM) | relative viability ([2]; first compound 4 µM) | relative viability (Tanzisertib + Pictilisib; first compound 0.08 µM) | relative viability (Tanzisertib + Pictilisib; first compound 0.253 µM) | relative viability (Tanzisertib + Pictilisib; first compound 0.8 µM) | relative viability (Tanzisertib + Pictilisib; first compound 2.53 µM) | relative viability (Tanzisertib + Pictilisib; first compound 8 µM) | relative viability ([1]; first compound 1.265 µM) |
| --- | --- | --- | --- | --- | --- | --- | --- | --- | --- | --- | --- | --- | --- | --- | --- | --- | --- | --- | --- | --- |
| NCI-H596 | 0.758 | 0.657 | 0.622 | 0.625 | 0.697 | 0.643 | 0.592 | 0.747 | 0.709 | 0.63 | 0.698 | 0.723 | 0.749 | 0.763 | 0.408 | 0.407 | 0.42 | 0.394 | 0.451 |  |
| SK-MES-1 | 0.699 | 0.709 | 0.742 | 0.653 | 0.624 | 0.61 | 0.574 | 0.573 | 0.602 | 0.813 | 0.834 | 0.697 | 0.639 | 0.638 | 0.378 | 0.338 | 0.366 | 0.34 | 0.245 | 0.673 |
| NCI-H1793 | 0.876 | 0.807 | 0.873 | 0.77 | 0.592 | 0.322 | 0.284 | 0.254 | 0.355 | 1.09 | 0.999 | 1.04 |  | 0.928 | 0.378 | 0.234 | 0.377 | 0.251 | 0.317 |  |
| NCI-H2405 | 0.924 | 0.902 | 0.869 | 1.03 | 0.869 | 0.594 | 0.742 | 0.695 | 0.36 |  | 0.863 | 0.741 | 0.587 | 0.337 | 0.438 | 0.422 | 0.49 | 0.421 | 0.323 | 0.542 |
| LCLC-103H | 0.76 | 0.813 | 0.816 | 0.8 | 0.81 | 0.416 | 0.453 | 0.438 | 0.432 | 0.8 | 0.748 | 0.769 | 0.827 | 0.628 | 0.698 | 0.642 | 0.648 | 0.616 | 0.608 | 0.463 |
| NCI-H460 | 0.487 | 0.445 | 0.417 | 0.442 | 0.503 | 0.748 | 0.602 | 0.746 | 0.897 | 0.342 | 0.429 | 0.521 | 0.579 | 0.571 | 0.495 | 0.368 | 0.362 | 0.317 | 0.0876 | 0.633 |
| NCI-H1755 | 0.906 | 0.868 | 0.889 | 0.855 | 0.865 | 0.606 | 0.815 | 0.758 | 0.587 | 0.91 | 0.963 | 0.873 | 0.839 | 0.743 | 0.47 | 0.456 | 0.433 | 0.429 | 0.331 | 0.638 |
| NCI-H358 | 0.623 | 0.547 | 0.586 | 0.583 | 0.492 | 0.816 | 1.07 | 0.855 | 0.701 | 0.625 | 0.628 | 0.69 | 0.696 | 0.479 | 0.393 | 0.389 | 0.331 | 0.293 | 0.332 | 0.794 |
| NCI-H1734 | 0.66 | 0.626 | 0.604 | 0.671 | 0.687 | 0.627 | 0.611 | 0.549 | 0.563 | 0.642 | 0.591 | 0.652 | 0.559 | 0.45 | 0.534 | 0.405 | 0.45 | 0.454 | 0.382 | 0.315 |
| EPLC-272H | 0.991 | 0.767 | 0.758 | 1.51 | 0.572 | 0.285 | 0.308 | 0.308 | 0.293 | 0.729 | 1.17 | 0.808 | 0.703 | 0.394 | 0.396 | 0.328 | 0.397 | 0.337 | 0.199 | 0.244 |
| NCI-H2126 | 0.913 | 0.919 | 0.987 | 0.873 | 0.938 | 0.9 | 0.654 | 0.797 | 0.944 | 0.945 | 0.946 | 0.915 | 0.988 | 0.948 | 0.522 | 0.464 | 0.503 | 0.494 | 0.52 |  |
